In PMC8126888 (RSC Medicinal Chemistry, 2020):
In brackets after ≈: the same amount, converted by molar mass. Read-outs that look alike come from different tables or passages of the source.

What was measured:
in vitro [1] = settings: human, THP-1 cells differentiated with PMA
Vero = test: cells; settings: Chlorocebus sabaeus, read-out: Vero IC50
in vitro [2] = settings: human, HepG2 cells
[3] = test system: L. donovani MHOM/SD/62/1SCL2D intracellular amastigotes; test: microbe, parasite or virus in culture; settings: Leishmania donovani, read-out: L. donovani MHOM/SD/62/1SCL2D intracellular amastigotes IC50
[4] = test system: primary peritoneal mouse macrophages (PMM); test: cells; settings: Macrophage
in vitro [5] = settings: human, microsomes, human liver microsomes
in vitro [6] = settings: mouse, microsomes, mouse liver microsomes
physchem [7] = settings: PBS, pH 7.4, aqueous buffer, kinetic from dmso stock
in vitro [8] = settings: human
[9] = test system: Leishmania infantum MHOM/MA(BE)/67/ITMAP263 intracellular amastigotes; test: microbe, parasite or virus in culture; settings: Macrophage, in Mus musculus
[10] = test system: axenic L. don. amastigotes (MHOM/SD/62/1S-CL2, LdBOB); test: microbe, parasite or virus in culture; settings: Leishmania donovani, read-out: L. donovani MHOM/SD/62/1SCL2D axenic-cidal amastigotes IC50
[11] = test system: Trypanosoma cruzi, Tulahuen CL2, beta-galactosidase strain; test: microbe, parasite or virus in culture
physchem [12] = settings: HPLC, Ascentis Express RP Amide column, pH 7.4, eLogD, experimental
in vitro [13] = settings: plasma, PPB (%)
in vitro [14] = settings: human, HFF-1 cells
in vitro [15] = settings: human, HepG2 cells; remark: listed apart in the source
in vitro [16] = settings: PAMPA
[17] = test system: Leishmania infantum (MHOM/MA/67/ITMAP-263) intracellular amastigotes in THP-1; test: microbe, parasite or virus in culture
in vitro [18] = settings: human, HFF-1 cells; remark: listed apart in the source
in vitro [19] = settings: human, HepG2 cells; remark: listed apart in the source
in vitro [20] = settings: PAMPA; remark: listed apart in the source
[21] = test system: L. infantum MHOM/MA/67/ITMAP263 axenic Promastigotes; test: microbe, parasite or virus in culture; settings: Leishmania infantum, read-out: L. infantum MHOM/MA/67/ITMAP263 axenic Promastigotes IC50
in vitro [22] = settings: human, HFF-1 cells; remark: listed apart in the source
in vitro [23] = settings: human, HepG2 cells; remark: listed apart in the source
in vitro [24] = settings: PAMPA; remark: listed apart in the source
[25] = read-out: L. Inf. pIC50 (converted)
[26] = read-out: L. infantum MHOM/MA(BE)/67/ITMAP263 intracellular amastigotes IC50
[27] = MRC5, read-out: T. cruzi Tulahuen C4 (LacZ) IC50
[28] = read-out: L. Inf. pIC50, from L. infantum intracellular amastigote IC50 (converted)
[29] = read-out: L. infantum MHOM/MA(BE)/67/ITMAP263 intracellular amastigotes IC50 (uM), intracellular amastigotes
[30] = MRC5, read-out: T. cruzi Tulahuen C4 (LacZ) IC50 (uM)
[31] = read-out: L. infantum MHOM/MA(BE)/67/ITMAP263 intracellular amastigotes IC50, intracellular amastigotes

Compound	CC50 at 120 h (in vitro [1]) [µM]	CC50 (in vitro [2]) [µM]	IC50 [3] [µM]	IC50 ([4]; read-out: PMM IC50) [µM]	microsomal CLint at 0.5 μM (in vitro [5]; pH 7.4, HLM CLint) [µL/min/mg]	microsomal CLint at 0.5 μM (in vitro [6]; pH 7.4, MLM CLint) [µL/min/mg]	solubility kinetic (physchem [7]) [µg/mL]	CC50 at 3 days (in vitro [8]) [µM]	IC50 [11, 27] [µM]	chromatographic logD (physchem [12])	IC50 [9, 28] [µM]	CC50 (in vitro [18]) [µM]	CC50 (in vitro [19]) [µM]	Papp (in vitro [20]) [×10⁻⁶ cm/s]	IC50 [9, 31] [µM]	IC50 [21] [µM]	further results
O=S(=O)(c1ccc2nncn2c1)N(Cc1cccc(F)c1)c1ccc2c(c1)OCO2 [DNDI0003321886]	> 50	> 50	> 50	–	–	–	–	–	–	–	–	–	–	–	–	–	IC50 (Vero): 35 µM
COc1cc(S(=O)(=O)N(Cc2ccccc2)Cc2ccccc2)c(OC)cc1C [DNDI0002644002]	> 50	39	12	> 64	920	1080	0.41 (≈ 0.996 µM)	> 64	> 64	–	–	–	–	–	–	–	KS PBS - pH 2: 0.41 ug/mL; IC50 [9, 25]: 0.537 µM; IC50 [9, 26]: 0.54 µM; IC50 [10]: 1.5 µM
COc1ccc(C(=O)N2CCOCC2)cc1S(=O)(=O)N(Cc1ccccc1)Cc1cnc(C(F)(F)F)nc1 [DNDI0003425509]	> 64	–	–	–	–	–	6.22 (≈ 11.3 µM)	> 64	–	3.1	4.37	–	–	–	–	–	KS PBS - pH 2 (ug/mL): 11.3 ug/mL; IC50 ([4]; read-out: PMM IC50 (uM)): > 64 µM; microsomal CLint at 0.5 μM (in vitro [5]; pH 7.4, HLM CLint (uL/min/mg)): 76 µL/min/mg; microsomal CLint at 0.5 μM (in vitro [6]; pH 7.4, MLM CLint (uL/min/mg)): 78 µL/min/mg; fraction unbound (in vitro [13]): 0.117; CC50 (in vitro [14]): > 64 µM; CC50 (in vitro [15]): > 64 µM; Papp (in vitro [16]): 15.2 ×10⁻⁶ cm/s; IC50 [9, 29]: 4.35 µM; IC50 ([17]; THP-1, read-out: L. infantum MHOM/MA/67/ITMAP263 intracellular amastigotes THP-1 cells IC50 (uM)): > 64 µM; IC50 [11, 30]: 7.07 µM
COc1ccc(OC)c(S(=O)(=O)N(Cc2ncccn2)Cc2ncccn2)c1 [DNDI0003370115]	–	–	–	> 64	17	67	–	> 64	61.4	1.3	> 64	> 64	> 64	25.1	> 64	> 64	–
COc1ccc(Cl)cc1S(=O)(=O)N(Cc1ccccc1)C(Cc1ccccc1)C(N)=O (stereo not shown) [DNDI0003370116]	–	–	–	32	752	801	–	9.62	5.3	4.2	4.68	37.5	39	5.17	4.73	30.4	–
O=C1c2ccccc2S(=O)(=O)N(Cc2ccccc2)C1Cc1ccccc1 (stereo not shown) [DNDI0003370098]	–	–	–	> 64	141	1060	–	30.8	9.38	3.6	11.7	> 64	> 64	4.11	11.7	> 64	–
CCCCCOc1cc(C)c(C)cc1S(=O)(=O)NC1CCCC1 [DNDI0002550647]	> 50	> 50	13	45.2	567	416	0.56 (≈ 1.65 µM)	37	7.86	–	–	–	–	–	–	–	KS PBS - pH 2: 0.74 ug/mL; IC50 [9, 25]: 1.05 µM; IC50 [9, 26]: 1.05 µM; IC50 [10]: 12 µM
CCCCCOc1cc(C)c(Cl)cc1S(=O)(=O)NCc1cccs1 [DNDI0002572712]	> 50	40	12	40.3	693	693	0.39 (≈ 1.01 µM)	44.1	12.2	–	–	–	–	–	–	–	KS PBS - pH 2: 0.39 ug/mL; IC50 [9, 25]: 0.851 µM; IC50 [9, 26]: 0.85 µM; IC50 [10]: 4.4 µM
COc1ccc(C(=O)N2CCOCC2)cc1S(=O)(=O)N(Cc1ccc(F)cc1)Cc1ccc(C(F)(F)F)nc1 [DNDI0003389644]	–	–	–	–	–	–	3.32 (≈ 5.85 µM)	> 64	–	–	1.74	–	–	–	–	–	KS PBS - pH 2 (ug/mL): 3.79 ug/mL; IC50 ([4]; read-out: PMM IC50 (uM)): > 64 µM; microsomal CLint at 0.5 μM (in vitro [5]; pH 7.4, HLM CLint (uL/min/mg)): 190 µL/min/mg; microsomal CLint at 0.5 μM (in vitro [6]; pH 7.4, MLM CLint (uL/min/mg)): 163 µL/min/mg; fraction unbound (in vitro [13]): 0.0409; CC50 (in vitro [14]): 36.9 µM; CC50 (in vitro [15]): > 64 µM; Papp (in vitro [16]): 10 ×10⁻⁶ cm/s; IC50 [9, 29]: 1.74 µM; IC50 [11, 30]: 3.39 µM
COc1ccc(OC)c(S(=O)(=O)N(Cc2ccc(F)cc2)c2ccc(F)cn2)c1 [DNDI0003370085]	–	–	–	> 64	230	1990	–	> 64	5.17	3.5	41.7	15	16.4	7.1	41.9	33	–
COc1ccc(CN2CCCC2)cc1S(=O)(=O)N(Cc1ccc(F)cc1)Cc1ccc(F)cc1 [DNDI0003370114]	–	–	–	8	62	144	–	6.87	3.27	4.4	2.95	13.8	3.25	0.64	2.92	0.72	–
COCCN(Cc1ccccc1)S(=O)(=O)c1c(OC)ccc(Cl)c1[S+](C)[O-] (stereo not shown) [DNDI0003578380]	> 64	–	–	> 64	85	286	–	> 64	> 64	2.9	–	–	–	–	26.7	–	CC50 (in vitro [22]): > 64 µM; CC50 (in vitro [23]): > 64 µM; Papp (in vitro [24]): 17.6 ×10⁻⁶ cm/s; IC50 ([9]; read-out: L. Inf. pIC50, L. infantum intracellular amastigotes (converted)): 26.9 µM; IC50 ([17]; THP-1, read-out: L. infantum MHOM/MA/67/ITMAP263 intracellular amastigotes THP-1 cells IC50): > 64 µM
